# Values of other authors in US20070122442A1, “Triple-Action Pest Control Formulation and Method” (priority 2004, published 2007).
# Tested on: insects
# Details: variety of insects
compound,measurement,value
OB(O)O [boric acid],retention at which boric acid is known to be effective,below 0.5%
